Data as given in patent publication US9957252B2, “Metalloenzyme inhibitor compounds as fungicides” (Dow AgroSciences LLC, priority 2014, dated 2018).
Like-named read-outs stand apart in the source and are kept apart here.

Legend:
[1] = tested on: standard laboratory SEPTTR isolate (SI SEPTTR); Mycosphaerella graminicola; Anamorph: Septoria tritici; assay: Leaf blotch of wheat fungicidal activity, Type A assay (technical grade in acetone/water with Triton X-100, booth sprayer), standard laboratory isolate; assay type: in vivo, Mycosphaerella graminicola on wheat plants (variety Yuma); details: Zymoseptoria tritici, 24 h, 1 Day Protectant, wheat seedlings (Yuma), read-out: Disease control, SI SEPTTR Type A Assay (50 ppm) 1DP
Experimental: (§1) Evaluation of Fungicidal Activity: Leaf Blotch of Wheat (Mycosphaerella graminicola; Anamorph: Septoria tritici; Bayer code SEPTTR):
(§2) For Type A assays, technical grades of the experimental fungicides in Table 4 below were dissolved in acetone, and then mixed with nine volumes of water containing 110 ppm Triton X-100. The fungicide solutions were applied onto wheat seedlings using an automated booth sprayer. For Type B assays, emulsifiable concentrate (EC) formulations of technical grades of experimental fungicides in Table 4 below were prepared at 10% (w/v), and then mixed with 150 volumes of 0.1% Trycol 5941. The fungicide solutions were applied onto wheat seedlings using an automated track sprayer at 200 L/ha. All sprayed plants were allowed to air dry prior to further handling.
(§3) Wheat plants (variety Yuma) were grown from seed in a greenhouse in 50% mineral soil/50% soil-less Metro mix until the first leaf was fully emerged, with 7-10 seedlings per pot. Prior to or after application of experimental fungicides, plants were inoculated either with spores of a standard laboratory SEPTTR isolate (SI SEPTTR) or with spores from a SEPTTR field isolate collected from Wellsbourne, England in 2012 (FI SEPTTR). After inoculation, the plants were kept for 3 days at 20° C. in 100% relative humidity (one day in a dark dew chamber followed by two days in a lighted dew chamber). Plants were then transferred to a 20° C. greenhouse for disease development. When disease symptoms were fully expressed on untreated plants, infection levels on treated plants were assessed on a scale of 0 to 100 percent disease severity. Percent disease control was calculated using the ratio of disease severity on treated plants relative to untreated plants.

[2] = Leaf blotch of wheat fungicidal activity, Type B assay (10% EC formulation in 0.1% Trycol 5941, track sprayer 200 L/ha), field isolate; assay type: in vivo, Mycosphaerella graminicola on wheat plants (variety Yuma); details: Zymoseptoria tritici, 72 h, field isolate (Wellsbourne, England 2012), wheat seedlings (Yuma)
Experimental: as §1, §2, §3

[3] = 3 Day Curative, read-out: Disease control, FI SEPTTR Type B Assay (100 g/ha) 3DC
[4] = 3 Day Protectant, read-out: Disease control, FI SEPTTR Type B Assay (100 g/ha) 3DP

Compound	pest or weed control at 50 ppm [1] [%]	pest or weed control at 100 g/ha [2, 3] [%]	pest or weed control at 100 g/ha [2, 4] [%]
COc1cc(-c2ccc(C3(C#N)CC3)cc2)ccc1C(O)(c1cncnc1)C(C)(C)C (stereo not drawn) [Compound 49]	80 to 100		
COc1ncncc1C(O)(c1ccc(-c2ccc(OC(F)(F)F)cc2C)cc1F)C(C)(C)C (stereo not drawn) [Compound 88]		80 to 100	80 to 100
CC(C)(C)C(O)(c1cncnc1)c1ccc(-c2ccc(C3(C#N)CC3)cc2F)cc1F (stereo not drawn) [Compound 97]		80 to 100	80 to 100
CC(C)(C)c1ccc(-c2ccc(C(O)(c3cncnc3)C(C)(C)C)cc2)cc1 (stereo not drawn) [Compound 33]	80 to 100		
CC(C)(C)C(O)(c1ccc(-c2ccc(C(F)(F)F)cc2F)cc1)c1cncnc1 (stereo not drawn) [Compound 29]	80 to 100		
CC(C)(C)C(O)(c1cccnc1)c1ccc(-c2ccc(OC(F)F)cc2)cc1Cl (stereo not drawn) [Compound 66]		< 40	80 to 100
COc1cc(-c2ccc(SC(F)(F)F)cc2)ccc1C(O)(c1cncnc1)C(C)(C)C (stereo not drawn) [Compound 46]	80 to 100		
CC(C)(C)C(O)(c1cncnc1)c1ccc(-c2ccc(C3(C#N)CC3)cc2)cc1F (stereo not drawn) [Compound 75]		80 to 100	80 to 100
COC(c1cncnc1)(c1ccc(-c2ccc(C3(C#N)CC3)cc2)cc1F)C(C)(C)C (stereo not drawn) [Compound 84]		80 to 100	80 to 100
Cc1cc(-c2ccc(C(C)(C)C#N)cc2F)ccc1C(O)(c1cncnc1)C(C)(C)C (stereo not drawn) [Compound 91]		80 to 100	80 to 100
CC(C)(C)C(O)(c1cncnc1)c1ccc(-c2ccc(OC(F)(F)F)cn2)cc1F (stereo not drawn) [Compound 102]		80 to 100	80 to 100
COC(c1cncnc1)(c1ccc(-c2ccc(OC(F)(F)F)cc2F)cc1F)C(C)(C)C (stereo not drawn) [Compound 81]		80 to 100	80 to 100
Cc1cc(-c2ccc(C(C)(C)C)cc2)ccc1C(O)(c1cncnc1)C(C)(C)C (stereo not drawn) [Compound 39]	80 to 100		
CC(C)(C)c1ccc(-c2ccc(C(O)(c3cccnc3)C(C)(C)C)c(Cl)c2)cc1 (stereo not drawn) [Compound 72]		60 to 79	80 to 100
CC(C)(C)C(O)(c1cncnc1)c1ccc(-c2ccc(OCC(F)(F)F)nc2)cc1F (stereo not drawn) [Compound 76]		80 to 100	60 to 79
CC(C)(C)C(O)(c1ccc(-c2ccc(C#N)cc2)cc1)c1cccnc1 (stereo not drawn) [Compound 58]	80 to 100		
Cc1cc(C(C)(C)C#N)ccc1-c1ccc(C(O)(c2cncnc2)C(C)(C)C)c(F)c1 (stereo not drawn) [Compound 105]		80 to 100	80 to 100
CC(C)(C)C(O)(c1ccc(-c2ccc(C(F)(F)F)cc2)cc1)c1cncnc1 (stereo not drawn) [Compound 6]	80 to 100		
COc1cc(-c2ccc(OC(F)(F)F)cc2C)ccc1C(O)(c1cncnc1)C(C)(C)C (stereo not drawn) [Compound 52]	60 to 79		
CC(C)(C)C(O)(c1cncnc1)c1ccc(-c2ccccc2)cc1Cl (stereo not drawn) [Compound 27]	80 to 100		
Cc1cc(-c2ccc(C3(C#N)CC3)cc2)ccc1C(O)(c1cncnc1)C(C)(C)C (stereo not drawn) [Compound 38]	80 to 100		
Cc1cc(-c2ccc(C3(C#N)CC3)cc2F)ccc1C(O)(c1cncnc1)C(C)(C)C (stereo not drawn) [Compound 103]		80 to 100	80 to 100
CC(C)(C)C(O)(c1cncnc1)c1ccc(-c2ccc(C3(C#N)CC3)cc2)cc1Cl (stereo not drawn) [Compound 89]		60 to 79	80 to 100
CC(C)(C)C(O)(c1cccnc1)c1ccc(-c2ccc(OCC(F)(F)F)cc2)cc1Cl (stereo not drawn) [Compound 67]		80 to 100	80 to 100
Cc1cc(OC(F)(F)F)ccc1-c1ccc(C(O)(c2cccnc2)C(C)(C)C)c(Cl)c1 (stereo not drawn) [Compound 73]		40 to 59	80 to 100

Compound	pest or weed control at 50 ppm [1] [%]	pest or weed control at 100 g/ha [2, 3] [%]	pest or weed control at 100 g/ha [2, 4] [%]
COC(c1cncnc1)(c1ccc(-c2ccc(C(C)(C)C#N)cc2)cc1F)C(C)(C)C (stereo not drawn) [Compound 85]		80 to 100	80 to 100
COC(c1cncnc1)(c1ccc(-c2ccc(OCC(F)(F)F)cc2)cc1F)C(C)(C)C (stereo not drawn) [Compound 83]		80 to 100	80 to 100
COC(c1cncnc1)(c1ccc(-c2ccc(OC(F)(F)F)cc2)cc1F)C(C)(C)C (stereo not drawn) [Compound 79, 5-(1-(3-fluoro-4′-(trifluoromethoxy)-[1,1′-biphenyl]-4-yl)-1-methoxy-2,2-dimethylpropyl)pyrimidine]		80 to 100	80 to 100
CC(C)(C#N)c1ccc(-c2ccc(C(O)(c3cncnc3)C(C)(C)C)c(F)c2)c(F)c1 (stereo not drawn) [Compound 101]		80 to 100	80 to 100
Cc1cc(OC(F)(F)F)ccc1-c1ccc(C(O)(c2cncnc2)C(C)(C)C)c(F)c1 (stereo not drawn) [Compound 74]		80 to 100	80 to 100
COC(c1cncnc1)(c1ccc(-c2ccc(OCC(F)(F)F)nc2)cc1F)C(C)(C)C (stereo not drawn) [Compound 82]		80 to 100	80 to 100
CC(C)(C)C(O)(c1cccnc1)c1ccc(-c2ccc(OC(F)(F)F)cc2)cc1Cl (stereo not drawn) [Compound 64]		80 to 100	80 to 100
CC(C)(C)C(O)(c1cccnc1)c1ccc(-c2ccc(C3(C#N)CC3)cc2)cc1Cl (stereo not drawn) [Compound 70]		80 to 100	80 to 100
CC(C)(C)C(O)(c1cccnc1)c1ccc(-c2ccc(SC(F)(F)F)cc2)cc1Cl (stereo not drawn) [Compound 65]		80 to 100	80 to 100
CC(C)(C)C(O)(c1cncnc1)c1ccc(-c2ccc(OC(F)(F)F)cc2F)cc1F (stereo not drawn) [Compound 78]		80 to 100	80 to 100
CC(C)(C)C(O)(c1cccnc1)c1ccc(-c2ccc(CC#N)cc2)cc1Cl (stereo not drawn) [Compound 69]		40 to 59	80 to 100
Cc1cc(OC(F)(F)F)ccc1-c1ccc(C(O)(c2cncnc2)C(C)(C)C)c(Cl)c1 (stereo not drawn) [Compound 99]		80 to 100	80 to 100
CC(C)(C)C(O)(c1cccnc1)c1ccc(-c2ccc(C#N)cc2)cc1Cl (stereo not drawn) [Compound 68]		60 to 79	80 to 100
CC(C)(C#N)c1ccc(-c2ccc(C(O)(c3cncnc3)C(C)(C)C)c(Cl)c2)cc1 (stereo not drawn) [Compound 86]		60 to 79	80 to 100
COc1ncncc1C(O)(c1ccc(-c2ccc(OC(F)(F)F)cc2)cc1F)C(C)(C)C (stereo not drawn) [Compound 96]		80 to 100	80 to 100
CC(C)(C#N)c1ccc(-c2ccc(C(O)(c3cncnc3)C(C)(C)C)c(Cl)c2)c(F)c1 (stereo not drawn) [Compound 95]		80 to 100	80 to 100
Cc1cc(-c2ccc(OC(F)(F)F)cn2)ccc1C(O)(c1cncnc1)C(C)(C)C (stereo not drawn) [Compound 94, 2,2-dimethyl-1-(2-methyl-4-(5-(trifluoromethoxy)pyridin-2-yl)phenyl)-1-(pyrimidin-5-yl)propan-1-ol]		80 to 100	80 to 100
CC(C)(C#N)c1ccc(-c2ccc(C(O)(c3cccnc3)C(C)(C)C)c(Cl)c2)cc1 (stereo not drawn) [Compound 71]		80 to 100	80 to 100
COC(c1cncnc1)(c1ccc(-c2ccc(OC(F)(F)F)cc2C)cc1F)C(C)(C)C (stereo not drawn) [Compound 80]		80 to 100	80 to 100
COc1ncncc1C(O)(c1ccc(-c2ccc(OCC(F)(F)F)nc2)cc1F)C(C)(C)C (stereo not drawn) [Compound 87]		80 to 100	80 to 100
CC(C)(C)C(O)(c1cncnc1)c1ccc(-c2ccc(C3(C#N)CC3)cc2F)cc1Cl (stereo not drawn) [Compound 106]		60 to 79	80 to 100
COc1ncncc1C(O)(c1ccc(-c2ccc(C3(C#N)CC3)cc2)cc1F)C(C)(C)C (stereo not drawn) [Compound 100]		80 to 100	80 to 100
CC(C)(C#N)c1ccc(-c2ccc(C(O)(c3cncnc3)C(C)(C)C)c(F)c2)cc1 (stereo not drawn) [Compound 77]		80 to 100	80 to 100
CC(C)(C)C(O)(c1cncnc1)c1ccc(-c2ccc(OC(F)(F)F)cc2F)cc1Cl (stereo not drawn) [Compound 104]		80 to 100	80 to 100
COc1ncncc1C(O)(c1ccc(-c2ccc(C(C)(C)C#N)cc2)cc1F)C(C)(C)C (stereo not drawn) [Compound 92]		80 to 100	80 to 100
